For series [1], the target named is T1, C-X-C chemokine receptor type 4 (Homo sapiens, UniProt P61073). Nature of the series: Antagonist activity at CXCR4 (unknown origin). In kind it is functional.
The subject of series [2] is Human immunodeficiency virus 1. Nature of the series: Antiviral activity against HIV1 3B. In kind it is functional, organism-based. As to conditions: Human immunodeficiency virus 1, 3B.
Series [3] relates to Human immunodeficiency virus 1. In words: Antiviral activity against HIV1 3B infected in human MT4 cells assessed as inhibition of virus induced cytopathic effect after 5 days by MTT assay. In kind it is functional, organism-based. As to conditions: Human immunodeficiency virus 1, 3B, MT4, 120 h.
Series [4] addresses T1, C-X-C chemokine receptor type 4. In words: Inhibition of SDF-1 binding to CXCR4 (unknown origin).
Series [5] shares this target. Nature of the series: Inhibition of SDF-1 binding to CXCR4 (unknown origin) at 10 uM relative to control.
In series [6] the test system is Human immunodeficiency virus. In words: Antiviral activity against HIV R4. In kind it is functional, organism-based. To be noted: Human immunodeficiency virus 1, R4.
In series [7] the target is T1, C-X-C chemokine receptor type 4. In words: Displacement of [125I]SDF-1 from human CXCR4 expressed in HEK293 cell membranes after 1.5 hrs by Topcount method.
The subject of series [8] is Human immunodeficiency virus 1. Nature of the series: Antiviral activity against HIV1 infected in human PBMC measured at 7 to 10 days post infection by ELISA. To be noted: Human immunodeficiency virus 1, PBMC. In kind it is functional, organism-based. In general terms: An ELISA detects its analyte on a solid surface through an enzyme-linked reagent.
In series [9] the target is T1, C-X-C chemokine receptor type 4. Nature of the series: Displacement of [125I]SDF-1alpha from CXCR4 in human MT4 cells after 2 hrs by scintillation counting analysis. In kind it is cell-based.
Series [10] has as its system Human immunodeficiency virus 1. In words: Antiviral activity against HIV1 3B infected in human MT4 cells assessed as inhibition of virus replication by MTT assay. In kind it is functional, organism-based. As to conditions: Human immunodeficiency virus 1, 3B. In general terms: Tetrazolium dyes change colour on reduction, which living cells bring about.
The nature of series [11]: Cytotoxicity against human MT4 cells assessed as reduction in cell viability. In kind it is cell-based.
Series [12] is described as follows: Bioavailability in Wistar rat at 200 mg/ml/kg administered intraduodenal by LC-MS analysis. In kind it is ADME, organism-based. To be noted: in vivo.
A short description of series [13]: Plasma concentration in Wistar rat at 200 mg/ml/kg administered intraduodenal after 60 mins by LC-MS analysis. In kind it is ADME.
Series [14] relates to Human immunodeficiency virus 1. In words: Antiviral activity against HIV1 R5 infected in human PBMC after 1 hr by ELISA. As to conditions: Human immunodeficiency virus 1, R5, PBMC. In kind it is functional, organism-based.
Series [15] deals with Human immunodeficiency virus 1. Nature of the series: Antiviral activity against HIV1 3B infected in human PBMC after 1 hr by ELISA. In kind it is functional, organism-based. To be noted: Human immunodeficiency virus 1, 3B.
For series [16], the system named is Human immunodeficiency virus 1. In words: Antiviral activity against HIV1 NL4-3 infected in human PBMC after 1 hr by ELISA. In kind it is functional, organism-based. To be noted: Human immunodeficiency virus 1, NL4-3, PBMC.
For series [17], the system named is Human immunodeficiency virus 1. Nature of the series: Antiviral activity against HIV1 R5/X4 infected in human PBMC after 1 hr by ELISA. In kind it is functional, organism-based. As to conditions: Human immunodeficiency virus 1, R5/X4, PBMC.
Series [18] deals with Human immunodeficiency virus 1. In words: Antiviral activity against HIV1 assessed as inhibition of virus induced cytopathic effect. In kind it is functional, organism-based. (Protection from cytopathic effect is a common read-out in antiviral testing.)

T1 sequence (P61073 whole entry): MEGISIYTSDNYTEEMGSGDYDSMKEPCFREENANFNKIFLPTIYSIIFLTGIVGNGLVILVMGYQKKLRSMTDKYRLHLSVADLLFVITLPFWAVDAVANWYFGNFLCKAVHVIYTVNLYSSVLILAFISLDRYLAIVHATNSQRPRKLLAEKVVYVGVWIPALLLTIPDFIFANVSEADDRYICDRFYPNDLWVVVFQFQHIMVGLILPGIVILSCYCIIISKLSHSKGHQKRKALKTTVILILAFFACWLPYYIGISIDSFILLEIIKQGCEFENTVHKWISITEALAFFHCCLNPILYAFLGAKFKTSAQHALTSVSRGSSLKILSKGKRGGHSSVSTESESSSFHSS

A word on the IC50: it is the concentration that gives 50% inhibition. In series [1], `c1ccc(CNCCN(CCNCc2ccccn2)Cc2ccc(CNCc3nc4ccccc4[nH]3)cc2)nc1` displayed an IC50 of 4 to 100 nM. What is called EC50 is the concentration that produces a half-maximal response. `c1cc(CN2CCCNCCNCCCNCC2)ccc1CN1CCCNCCNCCCNCC1` [PLERIXAFOR] returned an EC50 in [2] of 3 nM. Consider `CC1CCCCN1CCCNCc1ccc(CNCCCN2CCCCC2C)cc1` (centres undefined), for which, in [3], the EC50 worked out at 19.3 nM.

`CC(C)(NC[C@@H]1CCN(CCc2c[nH]c3ccc(-n4cnnc4)cc23)C1)c1ccccc1` yielded an IC50 in series [4] of 7 to 20 nM. As for `Nc1cc(N2CCNCC2)nc(NCc2ccc(CNCCCNC3CCCCC3)cc2)n1`, in series [1], the IC50 is less than 20 nM. One may read the inhibition as how much of the control response was suppressed. A lower inhibition goes with a weak effect. In [5], `c1ccc(CN2CCC(Nc3nccc(N4CCCCCC4)n3)C2)cc1` (centres undefined) came in with an inhibition greater than 50%. Turning to `CC(C)c1ccccc1NC(=O)NCCc1ccc2c(n1)NCCC2`, the IC50 in series [1] is 800 nM; in series [6] it was 200 to 50000 nM. `CCN(CC)CCCC(C)Nc1cc(/C=C/c2ccc([N+](=O)[O-])cc2)nc2cc(OC)ccc12` (centres undefined) had an IC50 in [7] of 2160 nM. For the compound `CC(C)Oc1ccc(-c2ccc3ccn(CC(=O)NCCN(C)C4CCCCC4)c3c2)cc1`, in series [4], the IC50 is less than 1000 nM.

In turn, `NCCNc1nccc(N2CCCCCC2)n1` yielded an inhibition in [5] greater than 50%. Turning to `CCCN(CCC)CCCCN(C)Cc1ccc(CN(Cc2ncc[nH]2)Cc2nccn2C)cc1`, the half-maximal effective concentration (EC50) in [8] lay within 0.3 to 1 nM.

`CC1CCCCN1CCCNCc1ccc(CN2CCCNCCNCCCNCC2)cc1` (centres undefined): the 50% effective concentration (EC50) in series [3] stood at 43.6 nM.

The term CC50 denotes the concentration at which the toxic effect on the cells reaches its halfway point. A word on the bioavailability: it is dose-corrected exposure relative to a reference, in per cent. `C[C@H](NC(=O)[C@H](CCCNC(=N)N)NC(=O)c1ccc(CNCc2ccccn2)cc1)c1cccc2ccccc12` showed an IC50 in [9] of 13 nM. The EC50 in [10] was determined as 19.3 nM. Further, the CC50 in series [11] is 400000 nM. Also, the bioavailability in [12] came to 7%. The compound also had a concentration at 1 h in series [13] of 30.6 µM.

Consider `Clc1cc(CN2CCCNCCNCCCNCC2)cc(Cl)n1`, for which the IC50 in series [14], in series [15], in [16] and in series [17] was 1200 to 26500 nM throughout. In series [4], `CN(CCc1ccccc1)C[C@@H]1CCN(CCc2c[nH]c3ccc(-n4cnnc4)cc23)C1` gave an IC50 of 7 to 20 nM. For the compound `O=C(NCCc1ccc2c(n1)NCCC2)Nc1cccc2ccccc12`, the IC50 is 600 nM in series [1] and 200 to 50000 nM in series [6]. In series [7], `c1ccc2c(NC3CCNCC3)nc(NCc3ccc(CNCCCNC4CCCCC4)cc3)nc2c1` returned an IC50 of 36.2 nM. This counts as double-digit nanomolar. In the case of `c1ccc(CNCc2ccc(CN3CCNCCc4cccc(n4)CCNCC3)cc2)nc1`, in series [18], the EC50 was determined as 1 nM. As for `O=C(NCCc1ccc2c(n1)NCCC2)Nc1ccc(C(F)(F)F)cc1`, the IC50 was 600 nM in [1] and 200 to 50000 nM in series [6]. On to `CCCN(CCC)CCCCNCc1ccc(CN(Cc2ncc[nH]2)Cc2ncc[nH]2)cc1`, for which, in series [8], the EC50 was found to be 2 nM.

`CN1CCN(c2cc(N)nc(NCc3ccc(CNCCCNC4CCCCC4)cc3)n2)CC1` displayed an IC50 in [1] of less than 20 nM. As to `Cc1ccsc1CN1CCC2(CC1)CCN(Cc1ccc(C(=O)N(Cc3ncc[nH]3)Cc3ncc[nH]3)cc1)C2`, the IC50 in series [4] was found to be 11 nM. This lies in the double-digit nanomolar range.

`CC(C)CN(CCC[C@H](NC(=O)c1ccc(CNCc2ncc[nH]2)cc1)C(=O)N[C@@H](C)c1cccc2ccccc12)CC(C)C`: the EC50 in series [3] is 6.7 nM. In series [2], `C1CNCCNCCCNC(C2CNCCCNCCNCCCN2)CNC1` (centres undefined) came in with an EC50 of 144 nM. `CCCN(CCC)Cc1ccc(NC(=O)c2ccc(CN(Cc3ncc[nH]3)Cc3ncc[nH]3)cc2)cc1` showed an EC50 in series [8] of 2 nM.

On to `c1ccc(CNCc2ccc(CN3CCCNCCNCCCNCC3)cc2)nc1`, for which, in series [18], the EC50 was determined as 9 nM. Turning to `C1CNCCNCCCN(CCCN2CCCNCCNCCCNCC2)CCNC1`, a half-maximal effect in [2] (EC50) was put at 248 nM. Consider `COc1ccc(NC(=O)NCCc2ccc3c(n2)NCCC3)cc1OC`, for which the IC50 is 680 nM in [1] and 200 to 50000 nM in [6]. On the same counts, the results for `Cn1ccc2c(NC(=O)NCCc3ccc4c(n3)NCCC4)cccc21` are 400 nM and 200 to 50000 nM. For `FC(F)(F)c1ccc(NC(=S)NCCc2ccc3c(n2)NCCC3)cc1`, in that order: 200 nM and 200 to 50000 nM.

Turning to `c1ccc(CNCc2ccc(CN3CCNCCCOCCCNCC3)cc2)nc1`, the EC50 in series [18] was 4 nM. In turn, `COc1ccc2[nH]c(CNCc3ccc(CN(CCNCc4ccccn4)CCNCc4ccccn4)cc3)nc2c1` came in with an IC50 in series [1] of 4 to 100 nM. For the compound `CC(C)CN(CCCCNC(=O)c1ccc(CN(Cc2ncc[nH]2)Cc2ncc[nH]2)cc1)CC(C)C`, a half-maximal effect in series [8] (EC50) was put at 3 nM.

On to `c1cc(CN2CCCNCCNCCCNCC2)ccc1CNCCCN1CCOCC1`, for which the EC50 in series [3] is 134 nM. Regarding `CC(NC[C@@H]1CCN(CCc2c[nH]c3ccc(-n4cnnc4)cc23)C1)c1ccccc1` (some centres undefined), in series [4], the IC50 is 7 to 20 nM. Same read-out and setting: to `c1ccc(CCNC[C@@H]2CCN(CCc3c[nH]c4ccc(-n5cnnc5)cc34)C2)cc1` belongs 7 to 20 nM.

Source of the values: ChEMBL document CHEMBL4196057, “The chemical diversity and structure-based evolution of non-peptide CXCR4 antagonists with diverse therapeutic potential” (Eur J Med Chem, 2018).
